Test results from ChEMBL document CHEMBL3352712, “Structural modifications of coumarin derivatives: Determination of antioxidant and lipoxygenase (LOX) inhibitory activity” (Bioorg Med Chem, 2014).

Experiments:
[1] = Antioxidant activity assessed as DPPH radical scavenging activity at 100 uM after 20 mins by spectrophotometry; assay type: physicochemical
[2] = Antioxidant activity assessed as DPPH radical scavenging activity at 100 uM after 60 mins by spectrophotometry; assay type: physicochemical; conditions: 1 h
[3] = Antioxidant activity assessed as inhibition of AAPH-induced linoleic acid lipid peroxidation at 100 uM; assay type: physicochemical
[4] = target: Lipoxygenase (Glycine max) (UniProt Q39829); assay: Inhibition of soybean LOX assessed as reduction in conversion of sodium linoleate to 13-hydroperoxylinoleic acid at 100 uM by UV spectroscopy
Lipoxygenase = Lipoxygenase (Glycine max, UniProt Q39829); assay: Inhibition of soybean LOX assessed as reduction in conversion of sodium linoleate to 13-hydroperoxylinoleic acid by UV spectroscopy

Structure (SMILES) | inhibition (INH) [1] | inhibition (INH) [2] [%] | inhibition (INH) [3] [%] | inhibition [4] [%] | IC50 (Lipoxygenase) | IC50 (Lipoxygenase; read-out: IC50) [µM]
COc1ccc(-c2c(C)c3cc(Br)ccc3o/c2=N/Nc2ccccc2)cc1OC | 85% | 86 | 55 | 28 | – | –
COc1ccc(-c2c(C)c3ccccc3o/c2=N/Nc2ccccc2)cc1 | 84% | 85 | 47 | – | Not Active | –
CC(C)=CCOc1ccc(-c2c(C)c3cc(Br)ccc3oc2=O)cc1OCC=C(C)C | 67% | 68 | 92 | – | – | 75
CC(C)=CCOc1ccc(-c2c(C)c3cc(Br)cc(Br)c3oc2=O)cc1OCC=C(C)C | Not Active | 9 | 100 | – | – | 37
COc1ccc(-c2cc3cc(Br)ccc3oc2=O)cc1OC | 11% | 12 | 56 | – | – | 81
COc1ccc(-c2c(C)c3cc(Br)ccc3oc2=S)cc1OC | 26% | 21 | 96 | – | – | 65
CC(C)=CCOc1ccc(-c2cc3cc(Br)ccc3oc2=O)cc1OCC=C(C)C | Not Active | 5 | 99 | – | – | 40
COc1ccc(-c2c(C)c3cc(-c4ccc(C=O)cc4)ccc3oc2=O)cc1OC | 11% | 68 | 64 | 1 | – | –
CC(Cc1ccc(O)c(O)c1)C(C)Cc1ccc(O)c(O)c1 (configuration not stated) [NORDIHYDROGUAIARETIC ACID] | 84% | 83 | – | – | – | 51
Cc1c(-c2ccc(O)c(O)c2)c(=O)oc2c(Br)cc(Br)cc12 | 76% | 78 | 75 | 7 | – | –
COc1ccc(-c2c(C)c3cc(Cl)ccc3oc2=S)cc1OC | Not Active | 9 | 50 | – | Not Active | –
O=c1oc2ccc(Br)cc2cc1-c1ccc(O)c(O)c1 | 78% | 80 | 26 | 26 | – | –
Cc1c(-c2ccc(O)c(O)c2)c(=O)oc2ccc(Br)cc12 | 77% | 62 | 75 | – | – | 75
COc1ccc(-c2ccc3oc(=O)c(-c4ccc(OC)c(OC)c4)c(C)c3c2)cc1 | 17% | 7 | 7 | 44 | – | –
COc1ccc(-c2c(C)c3ccccc3oc2=S)cc1 | 14% | 11 | 11 | 35 | – | –
Cc1c(C)c2c(c(C)c1O)CCC(C)(C(=O)O)O2 (configuration not stated) [TROLOX] | – | – | 63 | – | – | –
Cc1c(-c2ccc(O)c(O)c2)c(=S)oc2ccc(Br)cc12 | 41% | 35 | 59 | – | – | 90
COc1ccc(-c2c(C)c3cc(Br)cc(Br)c3oc2=O)cc1OC | 13% | 2 | 58 | – | – | –
